{
  "source": "patent US20220354949A1",
  "about": "“NOVEL COMPOUNDS” (XENIOPRO GmbH, priority 2018, published 2022)",
  "format_in_all_cases": "cell-based",
  "key": {"[1]": {"test_system": "MDA-MB-231 cells (human breast carcinoma cells)", "test": "Proliferation assay (alamarBlue) with MDA-MB-231 cells", "details": "compound at 20 μM", "from_the_text": "(§1) The antiproliferative activities of compounds falling under formula (Ia), (Ib) and (Ic), respectively, were investigated on cells or cell lines originating from a disorder of the haematopoietic system, including the myeloid cell compartment and the lymphoid cell compartment (T-cells and B-cells), the neuroendocrine system, the cervix, the breast, the ovaries, the lung, the gastrointestinal tract, and the mucosal epithelium, as well as from the skin epithelium and from the muscle. To this end, HL-60 cells, NB-4 cells, HH cells, RPMI-8402 cells, TANOUE cells, TT cells, HeLa cells, MDA-MB-231 cells, FU-OV-1 cells, LOU-NH91 cells, 23132/87 cells, CAL-27 cells, BHY cells, SCC-25 cells, A-431 cells, human primary epidermal keratinocytes (HPEK), and C2C12 cells were seeded into 96-well plates suitable for fluorescence assays (CORNING #3598) at following initial cell numbers: 1000 cells per well for HL-60; 1000 cells per well for NB-4; 5000 cells per well for HH; 5000 cells per well for RPMI-8402; 1500 cells per well for TANOUE; 9000 cells per well for TT; 2000 cells per well for HeLa; 3000 cells per well for MDA-MB-231; 3000 cells per well for FU-OV-1; 4000 cells per well for LOU-NH91; 2000 cells per well for 23132/87; 2000 cells per well for CAL-27; 1500 cells per well for BHY; 1500 cells per well for SCC-25; 700 cells per well for A-431; 1000 cells per well for HPEK; 500 cells per well for C2C12. The cells were treated with compounds at indicated final concentrations (diluted from the 1000× stock-solutions in DMSO to a final DMSO concentration of 0.1% v/v in H2O (Water For Injection, WFI, Fisherscientific #10378939)) or with the empty carrier DMSO at 0.1% v/v as control for 5 days. At day 5 after starting the treatments the cells were subjected to the alamarBlue® Proliferation Assay (Bio-Rad Serotec GmbH, BUF012B) according to the protocol of the manufacturer. The readout was taken with a multi-well plate-reader in the fluorescence mode with applying a filter for excitation at 560 nm (band width 10 nm) and for emission at 590 nm (band width 10 nm). Control treatments for growth inhibition with commercial compounds such as Methotrexate (MTREX) and Resveratrol (RES) were included on every plate. Some of the test compounds of the present invention were obtained and applied as their salts. According cases are indicated in the column “Specification” in Table 55 to Table 92 and by their sum formula in Table 93.\n(§2) The assays were performed in duplicate or more replicates of independent single experiments each containing a six-fold replicate for every condition. For every individual plate, the measured fluorescence intensity values of the conditions with compound treatment were normalized against the corresponding equally weighted arithmetic mean of the fluorescence intensity values of the six DMSO treated control wells in order to obtain the relative values to a baseline level of 1.0.\n(§3) Two independent outlier analyses were performed according to the methods by Peirce and Chauvenet (Ross, Journal of Engineering Technology 2003, 1-12). Outliers confirmed by at least one of the methods were excluded from the calculations but not more than one value out of six per compound within a single experiment. The weighted arithmetic mean (here abbreviated as AVEw) for each compound was calculated from the normalized values over all independent replicates of the single experiments comprising the six replicates each. The corresponding standard deviation for the weighted arithmetic mean was calculated according to the method described by Bronstein et al. (Bronstein, Semendjajew, Musiol, Müihlig, Taschenbuch der Mathematik, 5th edition 2001 (German), publisher: Verlag Harri Deutsch, Frankfurt am Main and Thun) and was combined with the Gauß' error propagation associated with the performed calculation for the normalization. The resulting standard deviation is herein referred to as “combined standard deviation”. […]"}, "[2]": {"test_system": "SCC-25 cells (human tongue squamous cell carcinoma cells)", "test": "Proliferation assay (alamarBlue) with SCC-25 cells", "details": "20 μM", "from_the_text": "as §1, §2, §3"}, "[3]": {"test_system": "C2C12 cells (murine myoblast cells)", "test": "Proliferation assay (alamarBlue) with C2C12 cells", "details": "compounds and controls at 20 μM", "from_the_text": "(§4) The antiproliferative activities of compounds falling under formula (Ia), (Ib) and (Ic), respectively, were investigated on cells or cell lines originating from a disorder of the haematopoietic system, including the myeloid cell compartment and the lymphoid cell compartment (T-cells and B-cells), the neuroendocrine system, the cervix, the breast, the ovaries, the lung, the gastrointestinal tract, and the mucosal epithelium, as well as from the skin epithelium and from the muscle. To this end, HL-60 cells, NB-4 cells, HH cells, RPMI-8402 cells, TANOUE cells, TT cells, HeLa cells, MDA-MB-231 cells, FU-OV-1 cells, LOU-NH91 cells, 23132/87 cells, CAL-27 cells, BHY cells, SCC-25 cells, A-431 cells, human primary epidermal keratinocytes (HPEK), and C2C12 cells were seeded into 96-well plates suitable for fluorescence assays (CORNING #3598) at following initial cell numbers: 1000 cells per well for HL-60; 1000 cells per well for NB-4; 5000 cells per well for HH; 5000 cells per well for RPMI-8402; 1500 cells per well for TANOUE; 9000 cells per well for TT; 2000 cells per well for HeLa; 3000 cells per well for MDA-MB-231; 3000 cells per well for FU-OV-1; 4000 cells per well for LOU-NH91; 2000 cells per well for 23132/87; 2000 cells per well for CAL-27; 1500 cells per well for BHY; 1500 cells per well for SCC-25; 700 cells per well for A-431; 1000 cells per well for HPEK; 500 cells per well for C2C12. […] The readout was taken with a multi-well plate-reader in the fluorescence mode with applying a filter for excitation at 560 nm (band width 10 nm) and for emission at 590 nm (band width 10 nm). […]\nas §2, with “1.0. […]” for “1.0.”"}, "[4]": {"test_system": "HeLa cells (human cervical adenocarcinoma cells)", "test": "Proliferation assay (alamarBlue) with HeLa cells", "details": "compound at 20 μM", "from_the_text": "as §1, §2, §3"}, "[5]": {"test_system": "TT cells (human medullary thyroid carcinoma cells)", "test": "Proliferation assay (alamarBlue) with TT cells", "details": "compound at 20 μM", "from_the_text": "as §1, §2, §3"}, "[6]": {"test_system": "human epidermal keratinocyte progenitors (HPEKp, pooled)", "test": "Proliferation assay (alamarBlue) with HPEKp cells", "details": "control at 20 μM", "from_the_text": "as §4\nas §2, with “1.0. […]” for “1.0.”"}, "[7]": {"test_system": "RPMI-8402 cells (human T cell acute lymphoblastic leukemia cells)", "test": "Proliferation assay (alamarBlue) with RPMI-8402 cells", "details": "20 μM", "from_the_text": "as §1, §2, §3"}, "[8]": {"test_system": "NB-4 cells (human acute promyelocytic leukemia cells)", "test": "Proliferation assay (alamarBlue) with NB-4 cells", "details": "20 μM", "from_the_text": "as §1, §2, §3"}, "[9]": {"test_system": "23132/87 cells (human gastric adenocarcinoma cells)", "test": "Proliferation assay (alamarBlue) with 23132/87 cells", "details": "20 μM", "from_the_text": "as §1, §2, §3"}, "[10]": {"test_system": "LOU-NH91 cells (human lung squamous cell carcinoma cells)", "test": "Proliferation assay (alamarBlue) with LOU-NH91 cells", "details": "20 μM", "from_the_text": "as §1, §2, §3"}, "[11]": {"test_system": "HH cells (human cutaneous T-cell lymphoma cells)", "test": "Proliferation assay (alamarBlue) with HH cells", "details": "20 μM", "from_the_text": "as §1, §2, §3"}, "[12]": {"test_system": "A-431 cells (human epidermoid squamous cell carcinoma cells)", "test": "Proliferation assay (alamarBlue) with A-431 cells", "details": "20 μM", "from_the_text": "as §1, §2, §3"}, "[13]": {"test_system": "FU-OV-1 cells (human ovarian carcinoma cells)", "test": "Proliferation assay (alamarBlue) with FU-OV-1 cells", "details": "compound at 20 μM", "from_the_text": "as §1, §2, §3"}},
  "data": [
    {"compound": "CN(Cc1cnc2nc(N)nc(N)c2n1)c1ccc(C(=O)N[C@@H](CCC(=O)O)C(=O)O)cc1", "note": "[MTREX, Methotrexate]", "values": [
      {"measurement": "activity at 20 µM", "setting": "[1]; Homo sapiens, Table 69 (novel compounds), read-out: Activity Range: weighted arithmetic mean (AVEw) of normalized fluorescence intensity relative to DMSO basis level 1.0", "value": 60, "unit": "%"},
      {"measurement": "Activity Range: weighted arithmetic mean (AVEw) of normalized fluorescence intensity relative to DMSO basis level 1.0", "setting": "[1]; Table 70 (compounds of PCT/EP2018/054686)", "value": "0.6 ± 0.0"},
      {"measurement": "Activity Range (weighted arithmetic mean AVEw of normalized fluorescence intensity, relative to DMSO basis level 1.0)", "setting": "[2]; Table 82 (novel compounds)", "value": "0.5 ± 0.1"},
      {"measurement": "Activity Range (weighted arithmetic mean AVEw of normalized fluorescence intensity, relative to DMSO basis level 1.0)", "setting": "[2]; Table 83 (compounds disclosed in PCT/EP2018/054686)", "value": "0.5 ± 0.1"},
      {"measurement": "Activity Range: weighted arithmetic mean (AVEw) of normalized fluorescence intensity, relative to DMSO basis level of 1.0", "setting": "[3]", "value": "0.1 ± 0.0"},
      {"measurement": "Activity Range: weighted arithmetic mean (AVEw) of normalized fluorescence intensity relative to DMSO basis level 1.0", "setting": "[4]; Table 67 (novel compounds)", "value": "0.4 ± 0.0"},
      {"measurement": "Activity Range: weighted arithmetic mean (AVEw) of normalized fluorescence intensity relative to DMSO basis level 1.0", "setting": "[4]; Table 68 (compounds of PCT/EP2018/054686)", "value": "0.4 ± 0.0"},
      {"measurement": "Activity Range: weighted arithmetic mean (AVEw) of normalized fluorescence intensity relative to DMSO basis level 1.0", "setting": "[5]; Table 65 (novel compounds)", "value": "1.0 ± 0.0"},
      {"measurement": "Activity Range: weighted arithmetic mean (AVEw) of normalized fluorescence intensity relative to DMSO basis level 1.0", "setting": "[5]; Table 66 (compounds of PCT/EP2018/054686)", "value": "1 ± 0.0"},
      {"measurement": "Activity Range: weighted arithmetic mean (AVEw) of normalized fluorescence intensity, relative to DMSO basis level of 1.0", "setting": "[6]", "value": "0.9 ± 0.0"},
      {"measurement": "Activity Range: weighted arithmetic mean (AVEw) of normalized fluorescence intensity, proliferation assay with RPMI-8402 cells", "setting": "[7]; relative to DMSO basis level 1.0, Table 61 (novel compounds)", "value": "0.1 ± 0.0"},
      {"measurement": "Activity Range: weighted arithmetic mean (AVEw) of normalized fluorescence intensity, proliferation assay with RPMI-8402 cells", "setting": "[7]; relative to DMSO basis level 1.0, Table 62 (compounds disclosed in PCT/EP2018/054686)", "value": "0.1 ± 0.0"},
      {"measurement": "Activity Range: weighted arithmetic mean (AVEw) of normalized fluorescence intensity, proliferation assay with NB-4 cells", "setting": "[8]; relative to DMSO basis level 1.0, Table 57 (novel compounds)", "value": "0.1 ± 0.0"},
      {"measurement": "Activity Range: weighted arithmetic mean (AVEw) of normalized fluorescence intensity, proliferation assay with NB-4 cells", "setting": "[8]; relative to DMSO basis level 1.0, Table 58 (compounds disclosed in PCT/EP2018/054686)", "value": "0.1 ± 0.0"},
      {"measurement": "Activity Range (weighted arithmetic mean AVEw of normalized fluorescence intensity, relative to DMSO basis level 1.0)", "setting": "[9]; Table 75 (novel compounds)", "value": "0.3 ± 0.0"},
      {"measurement": "Activity Range (weighted arithmetic mean AVEw of normalized fluorescence intensity, relative to DMSO basis level 1.0)", "setting": "[9]; Table 76 (compounds disclosed in PCT/EP2018/054686)", "value": "0.3 ± 0.0"},
      {"measurement": "Activity Range (weighted arithmetic mean AVEw of normalized fluorescence intensity, relative to DMSO basis level 1.0)", "setting": "[10]; Table 73 (novel compounds)", "value": "0.5 ± 0.1"},
      {"measurement": "Activity Range (weighted arithmetic mean AVEw of normalized fluorescence intensity, relative to DMSO basis level 1.0)", "setting": "[10]; Table 74 (compounds disclosed in PCT/EP2018/054686)", "value": "0.5 ± 0.1"},
      {"measurement": "Activity Range: weighted arithmetic mean (AVEw) of normalized fluorescence intensity, proliferation assay with HH cells", "setting": "[11]; relative to DMSO basis level 1.0, Table 59 (novel compounds)", "value": "0.4 ± 0.1"},
      {"measurement": "Activity Range: weighted arithmetic mean (AVEw) of normalized fluorescence intensity, proliferation assay with HH cells", "setting": "[11]; relative to DMSO basis level 1.0, Table 60 (compounds disclosed in PCT/EP2018/054686)", "value": "0.4 ± 0.1"},
      {"measurement": "Activity Range (weighted arithmetic mean AVEw of normalized fluorescence intensity, relative to DMSO basis level 1.0)", "setting": "[12]; Table 84 (novel compounds)", "value": "0.2 ± 0.1"},
      {"measurement": "Activity Range (weighted arithmetic mean AVEw of normalized fluorescence intensity, relative to DMSO basis level 1.0)", "setting": "[12]; Table 85 (compounds disclosed in PCT/EP2018/054686)", "value": "0.2 ± 0.1"},
      {"measurement": "Activity Range: weighted arithmetic mean (AVEw) of normalized fluorescence intensity relative to DMSO basis level 1.0", "setting": "[13]; Table 71 (novel compounds)", "value": "1.0 ± 0.0"},
      {"measurement": "Activity Range: weighted arithmetic mean (AVEw) of normalized fluorescence intensity relative to DMSO basis level 1.0", "setting": "[13]; Table 72 (compounds of PCT/EP2018/054686)", "value": "1.0 ± 0.0"}
    ]}
  ]
}
